Data taken from patent US8586538B2, “Method of treating a patient suffering from a bleeding disorder comprising administering an antibody against the A3-C1 of FVIII” (Stichting Sanquin Bloedvoorziening, priority 2002, dated 2013).
Values joined by “and” are separate entries in the source; they are usually repeats but may differ in a detail not shown here. Equal entries are not always repeated. No end group written: not given here.

Assays:
[1] = target: T1, interaction between FVIII light chain and LRP cluster II (Homo sapiens, UniProt Q07954); assay: Solid-phase competition: FVIII light chain binding to immobilized LRP cluster II; details: FVIII light chain 25 nM; peptide 0-1 mM; 2 h at 37° C
T1 construct: Recombinant LRP clusters II or IV (1 pmol/well) were adsorbed onto microtiter wells; made in house; host or cells: LRP cluster II: BHK cells; FVIII light chain: plasma-derived
T1 sequence (Q07954 803-1182): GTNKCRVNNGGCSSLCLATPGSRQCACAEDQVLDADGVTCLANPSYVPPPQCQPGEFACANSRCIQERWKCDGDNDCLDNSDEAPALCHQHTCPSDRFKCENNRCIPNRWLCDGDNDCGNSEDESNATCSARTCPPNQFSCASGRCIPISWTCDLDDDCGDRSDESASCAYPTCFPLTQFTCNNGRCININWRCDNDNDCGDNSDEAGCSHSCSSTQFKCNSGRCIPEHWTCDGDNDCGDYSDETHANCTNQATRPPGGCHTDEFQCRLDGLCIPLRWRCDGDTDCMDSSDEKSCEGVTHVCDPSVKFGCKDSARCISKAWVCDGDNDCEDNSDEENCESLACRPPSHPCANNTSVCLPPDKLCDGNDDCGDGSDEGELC
Protocol: (§1) FIG. 4. Effect of scFv antibody fragments on the interaction between FVIII light chain and LRP. A, FVIII light chain (LCh) (25 nM) was incubated with immobilized LRP cluster II (1 pmol/well) in a volume of 50 μl in 150 mM NaCl, 5 mM CaCl2, 1% (w/v) HSA, 0.1% Tween® 20, and 50 mM Tris (pH 7.4) in the presence of various concentrations (0-100 nM) of scFv KM41 (closed circles) or scFv KM36 (open circles) for 2 h at 37° C. After washing with the same buffer, bound FVIII light chain was quantified by incubation with peroxidase-conjugated anti-FVIII antibody CLB-CAg 12 for 15 min at 37° C. Residual binding is expressed as the percentage of binding in the absence of competitor and is corrected for nonspecific binding (less than 5% relative to binding to LRP cluster II-immobilized wells). Data represent the mean±S.D. of three experiments. B, FVIII light chain (50 nM) was incubated with immobilized LRP (16 fmol/mm^2) as described in the legend of FIG. 1. Binding was assessed in the absence (curve 1) or in the presence of increasing concentrations of scFv KM41 (20, 60, 300, 500 nM, curves 2-5, respectively). Complexes were allowed to form for 30 min before SPR analysis.
(§2) FIG. 5. Effect of scFv KM33 on the interaction between FVIII light chain and LRP. FVIII light chain (LCh) (25 nM) was incubated with immobilized LRP cluster II (1 pmol/well) in a volume of 50 μl in 150 mM NaCl, 5 mM CaCl2, 1% (w/v) HSA, 0.1% Tween® 20, and 50 mM Tris (pH 7.4) in the presence of various concentrations (0-30 nM) of scFv KM36 (open circles) or scFv KM33 (closed circles) for 2 h at 37° C. After washing with the same buffer, bound FVIII Light chain was quantified by incubation with peroxidase-conjugated anti-FVIII antibody CLB-CAg 12 for 15 min at 37° C. Residual binding is expressed as the percentage of binding in the absence of competitor and is corrected for nonspecific binding (less than 5% relative to binding to cluster-coated wells). Data represent the mean±S.D. of three experiments.
(§3) Recombinant LRP clusters II or IV (1 pmol/well) were adsorbed onto microtiter wells in 50 mM NaHCO3 (pH 9.8) in a volume of 50 μl for 16 h at 4° C. Wells were blocked with 2% (w/v) HSA, 150 mM NaCl, 5 mM CaCl2, and 50 mM Tris (pH 7.4) in a volume of 200 μl for 1 h at 37° C. After three rapid washes (less than 5 seconds each) with 150 mM NaCl, 5 mM CaCl2, 0.1% (v/v) Tween® 20, and 50 mM Tris (pH 7.4), FVIII light chain or its derivatives were incubated at various concentrations in a volume of 50 μl in a buffer containing 150 mM NaCl, 5 mM CaCl2, 1% (w/v) HSA, 0.1% (v/v) Tween® 20, and 50 mM Tris (pH 7.4) for 2 h. at 37° C. Bound ligand was detected by incubating with peroxidase-conjugated monoclonal antibody CLB-CAg 12 in the same buffer for 15 min at 37° C. […] In competition experiments, FVIII light chain (25 nM) was incubated with wells containing immobilized LRP clusters, either in the presence or absence of serial dilutions of competitor in a volume of 50 μl for 2 h at 37° C. Residual FVIII binding was detected as described above. Data were corrected for binding to empty microtiter wells, which was less than 5% relative to binding to wells containing immobilized LRP clusters.
(§4) (Note to Table II: Effect of FVIII a3-A3-C1 fragment derived synthetic peptides on the interaction between FVIII light chain and LRP cluster II. FVIII light chain (25 nM) was incubated with immobilized LRP cluster II (1 pmol/well) in a volume of 50 μl in 150 mM NaCl, 5 mM CaCl2, 1% (w/v) HSA, 0.1% Tween® 20, and 50 mM Tris (pH 7.4) in the presence or absence of various concentrations of synthetic peptide (0-1 mM) for 2 h at 37° C. After washing with the same buffer, bound FVIII light chain was quantified by incubation with peroxidase-conjugated anti-FVIII antibody CLB-CAg 12 for 15 min at 37° C. Half-maximum inhibition constants (IC50) represent the mean values±S.D. of three experiments.)

[2] = target: FVIIIa-FIXa complex (Homo sapiens, UniProt P00451+P00740); details: by interfering with the assembly of the FVIIIa-FIXa complex; cited from earlier work
[3] = target: T2, interaction between FVIII light chain and LRP cluster IV (Homo sapiens, UniProt P00451); assay: Solid-phase competition: FVIII light chain binding to immobilized LRP cluster IV; details: FVIII light chain 25 nM; competitor 0-600 nM
T2 construct: made in house; host or cells: LRP cluster IV: BHK cells; FVIII light chain: plasma-derived
T2 sequence (P00451 1668-2351 limits assumed): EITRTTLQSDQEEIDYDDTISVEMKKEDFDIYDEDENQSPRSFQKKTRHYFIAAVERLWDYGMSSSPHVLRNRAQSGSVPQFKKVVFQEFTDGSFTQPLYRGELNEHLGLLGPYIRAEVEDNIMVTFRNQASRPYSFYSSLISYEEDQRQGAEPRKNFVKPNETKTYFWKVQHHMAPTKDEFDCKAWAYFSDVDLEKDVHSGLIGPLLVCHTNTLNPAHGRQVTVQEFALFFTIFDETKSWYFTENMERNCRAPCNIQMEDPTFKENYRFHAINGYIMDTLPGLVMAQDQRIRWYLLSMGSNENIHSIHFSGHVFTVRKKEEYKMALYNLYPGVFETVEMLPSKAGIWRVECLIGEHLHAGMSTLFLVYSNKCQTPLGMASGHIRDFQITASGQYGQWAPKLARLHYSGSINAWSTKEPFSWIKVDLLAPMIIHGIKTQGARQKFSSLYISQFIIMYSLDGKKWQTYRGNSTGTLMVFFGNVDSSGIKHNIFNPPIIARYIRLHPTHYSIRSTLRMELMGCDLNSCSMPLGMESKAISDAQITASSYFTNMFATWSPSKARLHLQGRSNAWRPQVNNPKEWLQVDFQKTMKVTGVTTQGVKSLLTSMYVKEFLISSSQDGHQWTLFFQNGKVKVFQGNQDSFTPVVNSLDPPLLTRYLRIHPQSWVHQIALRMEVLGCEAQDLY
Protocol: FIG. 2. Binding of FVIII light chain to recombinant LRP fragments. FVIII light chain (LCh) (25 nM) was incubated with immobilized LRP cluster IV (1 pmol/well) in a volume of 50 μl in 150 mM NaCl, 5 mM CaCl2, 1% (w/v) HSA, 0.1% Tween® 20, and 50 mM Tris (pH 7.4) in the presence or absence of various concentrations of recombinant LRP cluster II (0-600 nM) for 2 h at 37° C. After washing with the same buffer, bound FVIII light chain was quantified by incubation with peroxidase-conjugated anti-FVIII antibody CLB-CAg 12 for 15 min at 37° C. Residual binding is expressed as the percentage of binding in the absence of competitor and is corrected for nonspecific binding (less than 5% relative to binding to LRP cluster II-immobilized wells). Inset, serial dilutions of FVIII light chain were incubated with immobilized LRP cluster II (1 pmol/well) in a volume of 50 μl in 150 mM NaCl, 5 mM CaCl2, 1% (w/v) HSA, 0.1% Tween® 20, and 50 mM Tris (pH 7.4) for 2 h at 37° C. After washing with the same buffer, bound FVIII light chain was quantfied as described above. […]
Recombinant LRP clusters II or IV (1 pmol/well) were adsorbed onto microtiter wells in 50 mM NaHCO3 (pH 9.8) in a volume of 50 μl for 16 h at 4° C. […] Bound ligand was detected by incubating with peroxidase-conjugated monoclonal antibody CLB-CAg 12 in the same buffer for 15 min at 37° C. […] Residual FVIII binding was detected as described above. […]

[4] = target: T3, interaction between FVIII light chain and LRP cluster II (Homo sapiens, UniProt P00451); assay: Solid-phase competition: FVIII light chain binding to immobilized LRP cluster II; details: FVIII light chain 25 nM
T3 construct: Recombinant LRP clusters II or IV (1 pmol/well) were adsorbed onto microtiter wells; made in house; host or cells: LRP cluster II: BHK cells; FVIII light chain: plasma-derived
T3 sequence (P00451 1668-2351): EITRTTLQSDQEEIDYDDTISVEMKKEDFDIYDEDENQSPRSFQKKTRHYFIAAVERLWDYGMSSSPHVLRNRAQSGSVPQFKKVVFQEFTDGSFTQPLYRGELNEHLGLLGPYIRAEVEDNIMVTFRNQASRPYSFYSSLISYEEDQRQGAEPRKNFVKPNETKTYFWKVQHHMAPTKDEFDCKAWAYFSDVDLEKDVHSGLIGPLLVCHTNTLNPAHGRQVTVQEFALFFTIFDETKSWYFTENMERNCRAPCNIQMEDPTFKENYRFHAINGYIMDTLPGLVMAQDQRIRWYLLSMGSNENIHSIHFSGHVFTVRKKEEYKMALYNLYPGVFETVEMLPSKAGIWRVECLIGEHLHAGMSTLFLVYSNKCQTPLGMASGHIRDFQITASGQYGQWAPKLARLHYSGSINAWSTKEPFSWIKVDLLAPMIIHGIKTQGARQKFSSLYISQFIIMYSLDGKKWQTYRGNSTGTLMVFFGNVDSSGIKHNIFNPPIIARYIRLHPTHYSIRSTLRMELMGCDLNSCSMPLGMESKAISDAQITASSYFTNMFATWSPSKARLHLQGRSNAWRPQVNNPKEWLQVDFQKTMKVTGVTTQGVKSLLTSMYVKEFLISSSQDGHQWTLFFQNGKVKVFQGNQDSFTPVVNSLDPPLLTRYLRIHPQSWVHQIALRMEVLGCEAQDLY
Protocol: as §1, §2, §3, §4

[5] = Factor VIII clearance and recovery in vWF knock out mice; type: in vivo; details: for Factor VIII activity in plasma: Factor VIII 200 U/kg
Protocol: FIG. 8. According to Example II, mice were injected either with human FVIII alone, human FVIII in the presence of a control scFv-fragment (KM38) and with human FVIII in the presence of a scFv-fragment (KM33) specifically interfering with the putative FVIII-LRP interaction.
Experimental procedure: vWF knock out mice (decreased endogenous Factor VIII, 20% Factor VIII compared to healthy animals) were treated with human recombinant Factor VIII (Recombinate™; 200 U/kg) and recombinant scFv (KM33) in excess. (30 nM versus 3 nM Factor VIII in plasma). In control experiments, Factor VIII and a control scFv fragment (KM38) binding to a different domain as the proposed LRP binding
site on the Factor VIII molecule were used in the same concentrations. Infusion of recombinant FVIII without any addition was used to monitor the clearance of Factor VIII in this model system.
At defined time points (15, 30, 60, 120 and 240 minutes) after injection, blood was collected by heart puncture, plasma was subsequently isolated, shock frozen and analyzed for Factor VIII activity. Ten mice were used at each time point, plasma was diluted to 3 concentrations (1:20, 1:60 and 1:100) and analyzed in duplicate. Factor VIII levels were quantified by performing a quantitative ELISA.

FVIIIa-FIXa complex, sequence (P00740 47-191 limits assumed, one chain of several): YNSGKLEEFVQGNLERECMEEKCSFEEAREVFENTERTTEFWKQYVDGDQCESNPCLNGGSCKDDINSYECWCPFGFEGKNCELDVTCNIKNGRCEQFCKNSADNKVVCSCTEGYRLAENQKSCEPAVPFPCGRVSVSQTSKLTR

Molecule: EDPTFKENYRFH [Residues 1908-1919]
- IC50 [1]: > 1000 µM

Molecule: YFWKVQHHMAPTKDEFDCKA [Residues 1815-1834]
- IC50 [1]: ~16.8 µM and 16.8 µM
- Inhibition of FVIII procoagulant activity [2]: effective inhibitors

Molecule: TENMERNCRA [Residues 1892-1901]
- IC50 [1]: > 1000 µM

Molecule: LRP cluster II: recombinant LRP ligand binding cluster II expressed in BHK cells
- Inhibition of FVIII light chain binding to immobilized LRP cluster IV [3]: dose-dependent inhibition

Molecule: TVRKKEEYK [Residues 1964-1972]
- IC50 [1]: > 1000 µM

Molecule: WDYGMSSSPHVLRNR [Residues 1707-1721]
- IC50 [1]: > 1000 µM

Molecule: KLARLHYSG [Residues 2049-2057]
- IC50 [1]: > 1000 µM

Molecule: KNFVKPNETKTYFWK [Residues 1804-1818]
- IC50 [1]: ~1.9 µM and 1.9 µM
- Inhibition of FVIII procoagulant activity [2]: effective inhibitors

Molecule: HMAPTKDEFDCKA [Residues 1822-1834]
- IC50 [1]: > 1000 µM

B1: scFv KM33: scFv antibody fragment against FVIII light chain; does not require A3 domain region 1778-1818; LRP blocking (protein)
scFv: EVQLVESGGGVVQPGRSLRLSCVDSGLTFSSYGMHWVRQAPGAGLEWVAVISYDGNDKYYADSVKGRFAISRDNAKNTLYLQMNSLTIEDTAVYYCAKDLIESNIAEAFWGQGTLVTVSSGGGGSGGGGSGGGGSDIQMTQSPSSLSASVGDTVTIACRASRDIRNDLAWYQQKPGKAPKLLIYATSRLQSGVPSRFSGSGSFTDFTLTINSLQPDDSATYYCLQDSDYPLTFGGGTKVDIKRAAAEQKLISEEDLNGAAHHHHHH
- Effect on binding of FVIII light chain to immobilized LRP cluster II [4]: effectively inhibited
- Factor VIII recovery ([5]; 15 minutes after injection): 30.4%
- Factor VIII activity in plasma ([5]; 15 minutes after injection): about 0.8 U/mL
- Factor VIII recovery ([5]; 30 minutes after injection): 20%
- Factor VIII activity in plasma ([5]; 30 minutes after injection): 0.5 U/mL
- Factor VIII recovery ([5]; 60 minutes after injection): 14%
- Factor VIII activity in plasma ([5]; 60 minutes after injection): 0.35 U/mL
- FVIII activity levels ([5]; four hours after injection): reached the background activity of mouse Factor VIII
- Inhibition of FVIII procoagulant activity [2]: effective inhibitors
